Laboratory results taken from patent publication US11136296B2, “Substituted N-arylethyl-2-arylquinoline-4-carboxamides and use thereof” (Bayer Aktiengesellschaft, priority 2017, dated 2021).
One block for each compound: values may come before it.

Tests used:
FP receptor = FP receptor (Homo sapiens (Human), UniProt P43088); experiment: In vitro test of inhibition of human FP receptor activity (PGF2α-induced calcium flux in FP-expressing CHEM1 cells); assay type: cell-based; details: PGF2α-induced (2 nM) calcium flux in FP-expressing CHEM1 cells; some as mean values from multiple determinations
Source text: Table 1 below lists the IC50 values from this assay for individual working examples of the invention (some as mean values from multiple independent individual determinations): […]

[1] = system: fluprostenol-induced mechanical sensitivity; experiment: Effects of FP antagonists on mechanical sensitivity (von Frey test, fluprostenol-induced mechanical allodynia); assay type: in vivo, mouse; details: for 50% Paw Response Threshold, mean: Ex. 153 90 mg/kg PO, male ND4 mice; for effect on 50% Paw Response Thresholds compared to vehicle-treated animals: group treated with […] fluprostenol, oral 90 mg/kg
Procedure: B-24. Effects of FP Antagonists on Mechanical Sensitivity (Peripheral, Mouse)
Mechanical allodynia was examined using the von Frey test on the injected and uninjected rear paws several times after the injection.
Mechanical allodynia was measured with […] (Stölting©; Wood Dale, Ill., USA) having different stiffness (0.04; 0.07; 0.16; 0.4; 1.0. 4.0 and 8.0 g) by the up-down method (Chaplan et al., J. Neurosci. Meth. 1994, 53, 56-63). Intact male ND4 mice (30 g, 10 animals per group) were placed in individual acrylic chambers on a metal grid surface, and were allowed to get used to their environment for at least 15 minutes before the testing. Each filament was pressed with sufficient force at right angles to the underside of the paw, in order to cause slight bending against the paw, and was held for about 6 seconds or until a positive response was registered (paw quickly withdrawn). The testing was commenced with the 0.4 g filament. If the paw was not withdrawn, the next strongest stimulus was used. In the case that the paw was withdrawn, the next weakest stimulus was used. This process was repeated until up to 4 responses had been obtained after the initial change in response (no response after positive response or positive response after no response). […] The 50% paw response threshold was calculated using the following formula:
[formula] • Xf=value (in logarithmic units) of the last von Frey filament used • k=table value for the pattern of positive/negative responses (see Chaplan et al., J. Neurosci. Meth. 1994, 53, 56-63, Annex 1, page 62) • δ=average difference (in logarithmic units) between the stimuli
The mean and […] of the mean (SEM) was determined for each paw for each treatment group at each time point.
In order to assess the analgesic effect of an FP antagonist on fluprostenol-induced mechanical sensitivity, the test substance from Ex. 153 (90 mg/kg) was administered 2 hours before and 8 and 22 hours after the injection of fluprostenol. Ipsilateral and contralateral 50% paw response thresholds were examined prior to the administration of fluprostenol and 0.5, 2, 6 and 24 h after the administration.

Sequence of FP receptor (P43088 whole entry): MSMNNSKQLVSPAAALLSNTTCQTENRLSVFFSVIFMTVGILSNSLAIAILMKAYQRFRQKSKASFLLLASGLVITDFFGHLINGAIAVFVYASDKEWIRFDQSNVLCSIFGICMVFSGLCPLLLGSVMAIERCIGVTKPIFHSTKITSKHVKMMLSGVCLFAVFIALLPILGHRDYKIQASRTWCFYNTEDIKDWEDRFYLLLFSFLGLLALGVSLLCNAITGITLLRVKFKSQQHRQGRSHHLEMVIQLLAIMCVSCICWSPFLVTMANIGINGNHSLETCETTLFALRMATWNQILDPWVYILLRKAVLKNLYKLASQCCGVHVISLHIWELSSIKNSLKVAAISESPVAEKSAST

SMILES: Cc1c(-c2ccccc2)nc2ccc(Br)cc2c1C(=O)NCC(CCC(=O)O)c1ccccc1Cl (single isomer, unassigned; (+)) [Ex. 153, (+)-5-{[(6-Bromo-3-methyl-2-phenylquinolin-4-yl)carbonyl]amino}-4-(2-chlorophenyl)pentanoic Acid]
- IC50 (FP receptor): 9 nM
- 50% Paw Response Threshold, mean ([1]; Group 2: fluprostenol ~[…] IPL, 0.5 h): 2.65 g
- 50% Paw Response Threshold, mean ([1]; Group 2: fluprostenol ~[…] IPL, 2 h): 2.403 g
- 50% Paw Response Threshold, mean ([1]; Group 2: fluprostenol ~[…] IPL, 6 h): 1.89 g
- 50% Paw Response Threshold, mean ([1]; Group 2: fluprostenol ~[…] IPL, 24 h): 3.245 g
- 50% Paw Response Threshold, mean ([1]; Group 2: fluprostenol ~[…] IPL, BL (baseline)): 4.421 g
- 50% Paw Response Threshold, mean ([1]; Group 4: fluprostenol ~[…] IPL, 0.5 h): 0.728 g
- 50% Paw Response Threshold, mean ([1]; Group 4: fluprostenol ~[…] IPL, 2 h): 0.716 g
- 50% Paw Response Threshold, mean ([1]; Group 4: fluprostenol ~[…] IPL, 6 h): 1.57 g
- 50% Paw Response Threshold, mean ([1]; Group 4: fluprostenol ~[…] IPL, 24 h): 1.683 g
- 50% Paw Response Threshold, mean ([1]; Group 4: fluprostenol ~[…] IPL, BL (baseline)): 4.215 g
- effect on 50% Paw Response Thresholds compared to vehicle-treated animals ([1]; 0.5 hours after the fluprostenol injection): increased the “50% Paw Response Thresholds” 0.5 hours after the fluprostenol injection significantly
- effect on 50% Paw Response Thresholds compared to vehicle-treated animals ([1]; 24 hours after the fluprostenol injection): increased the “50% Paw Response Thresholds” 24 hours after the fluprostenol injection significantly

SMILES: COc1ccccc1C(CNC(=O)c1c(C)c(-c2ccccc2)nc2ccc(Br)cc12)N1CCC(C(=O)O)C1 (centres unmarked) [Example 246, 1-[2-{[(6-Bromo-3-methyl-2-phenylquinolin-4-yl)carbonyl]amino}-1-(2-methoxyphenyl)ethyl]pyrrolidine-3-carboxylic Acid]
- IC50 (FP receptor): 94 nM

More lines, now with the values ahead:

- IC50 (FP receptor): 7.2 nM
SMILES: COc1ccccc1[C@H](CNC(=O)c1c(C)c(-c2ccccc2)nc2ccc(Br)cc12)N1CCC(C(=O)O)C1 (some centres unmarked) [compound 247]

- IC50 (FP receptor): 13 nM
SMILES: COc1ccccc1[C@@H](CNC(=O)c1c(C)c(-c2ccccc2)nc2ccc(Br)cc12)N1CCC(C(=O)O)C1 (some centres unmarked) [compound 248]

- IC50 (FP receptor): 14 nM
SMILES: Cc1c(-c2ccccc2)nc2ccc(Br)cc2c1C(=O)NCC(CCC(=O)O)c1ccccc1F (centres unmarked) [compound 252]
